Test system: 596521-263-R-J1-PDC complex spheroids, viability % of control
Test: Anticancer human tumor 596521-263-R-J1-PDC patient-derived soft tissue sarcoma cell line growth inhibition [GQUAD]
Conditions: for IC50: curve of first compound; for viability, T/C: stronger effect = lower value
Method in brief: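 Viability of tumor cells grown as complex spheroids with endothelial and stromal cells, exposed to drug combinations. Top concentration at or near clinical Cmax (else 10 microM), diluted in half-log increments.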

[1] = second compound 0.0316 µM, first compound 0.0316 µM
[2] = second compound 0.0316 µM, first compound 0.1 µM
[3] = second compound 0.0316 µM, first compound 0.316 µM
[4] = second compound 0.0316 µM, first compound 1 µM
[5] = second compound 0.0316 µM, first compound 3.16 µM
[6] = second compound 0.0316 µM, first compound 10 µM
[7] = second compound 0.1 µM, first compound 0.0316 µM
[8] = second compound 0.1 µM, first compound 0.1 µM
[9] = second compound 0.1 µM, first compound 0.316 µM
[10] = second compound 0.1 µM, first compound 1 µM
[11] = second compound 0.1 µM, first compound 3.16 µM
[12] = second compound 0.1 µM, first compound 10 µM
[13] = second compound 0.316 µM, first compound 0.0316 µM
[14] = second compound 0.316 µM, first compound 0.1 µM
[15] = second compound 0.316 µM, first compound 0.316 µM
[16] = second compound 0.316 µM, first compound 1 µM
[17] = second compound 0.316 µM, first compound 3.16 µM
[18] = second compound 0.316 µM, first compound 10 µM
[19] = second compound 1 µM, first compound 0.0316 µM
[20] = second compound 1 µM, first compound 0.1 µM
[21] = second compound 1 µM, first compound 0.316 µM
[22] = second compound 1 µM, first compound 1 µM
[23] = second compound 1 µM, first compound 3.16 µM
[24] = second compound 1 µM, first compound 10 µM
[25] = second compound 3.16 µM, first compound 0.0316 µM
[26] = second compound 3.16 µM, first compound 0.1 µM
[27] = second compound 3.16 µM, first compound 0.316 µM
[28] = second compound 3.16 µM, first compound 1 µM
[29] = second compound 3.16 µM, first compound 3.16 µM
[30] = second compound 3.16 µM, first compound 10 µM
[31] = second compound 10 µM, first compound 0.0316 µM
[32] = second compound 10 µM, first compound 0.1 µM
[33] = second compound 10 µM, first compound 0.316 µM
[34] = second compound 10 µM, first compound 1 µM
[35] = second compound 10 µM, first compound 3.16 µM
[36] = second compound 10 µM, first compound 10 µM
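Further: spheroids exposed to drugs for 7 days before viability reading.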
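Wherever viability, T/C is given: 100% = DMSO vehicle control viability.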

Compound: CCCS(=O)(=O)Nc1ccc(F)c(C(=O)c2c[nH]c3ncc(-c4ccc(Cl)cc4)cc23)c1F + CN(C)c1ccc(Nc2c3ccc(NC(=O)CCN4CCCC4)cc3nc3cc(NC(=O)CCN4CCCC4)ccc23)cc1
- IC50 (second compound 0.0316 µM): 5.18 µM
- IC50 (second compound 0.1 µM): 5.51 µM
- IC50 (second compound 0.316 µM): 5.6 µM
- IC50 (second compound 1 µM): 6.65 µM
- IC50 (second compound 3.16 µM): 5.01 µM
- IC50 (second compound 10 µM): 1.82 µM
- viability, T/C [1]: 94.7%
- viability, T/C [2]: 83.9%
- viability, T/C [3]: 95.3%
- viability, T/C [4]: 82.1%
- viability, T/C [5]: 65.8%
- viability, T/C [6]: 29.4%
- viability, T/C [7]: 101%
- viability, T/C [8]: 88.9%
- viability, T/C [9]: 104%
- viability, T/C [10]: 83%
- viability, T/C [11]: 69.8%
- viability, T/C [12]: 29.9%
- viability, T/C [13]: 94.4%
- viability, T/C [14]: 93.8%
- viability, T/C [15]: 89.4%
- viability, T/C [16]: 80%
- viability, T/C [17]: 65.9%
- viability, T/C [18]: 34.4%
- viability, T/C [19]: 98.5%
- viability, T/C [20]: 97.7%
- viability, T/C [21]: 85.8%
- viability, T/C [22]: 84.1%
- viability, T/C [23]: 71%
- viability, T/C [24]: 39.1%
- viability, T/C [25]: 93.2%
- viability, T/C [26]: 91.7%
- viability, T/C [27]: 94%
- viability, T/C [28]: 84.3%
- viability, T/C [29]: 56.9%
- viability, T/C [30]: 39.8%
- viability, T/C [31]: 62.9%
- viability, T/C [32]: 60.5%
- viability, T/C [33]: 56.9%
- viability, T/C [34]: 57.3%
- viability, T/C [35]: 44.5%
- viability, T/C [36]: 30.1%

Compound: COc1ncnc(C2CC2)c1-c1ncc2cnn(Cc3ccc(-c4nc(C(F)(F)F)cn4C(C)C)cc3)c2n1 + CN(C)c1ccc(Nc2c3ccc(NC(=O)CCN4CCCC4)cc3nc3cc(NC(=O)CCN4CCCC4)ccc23)cc1
- IC50 (second compound 0.0316 µM): > 10 µM
- IC50 (second compound 0.1 µM): > 10 µM
- IC50 (second compound 0.316 µM): > 10 µM
- IC50 (second compound 1 µM): > 10 µM
- IC50 (second compound 3.16 µM): > 10 µM
- IC50 (second compound 10 µM): 3.76 µM
- viability, T/C [1]: 94.8%
- viability, T/C [2]: 100%
- viability, T/C [3]: 92.2%
- viability, T/C [4]: 104%
- viability, T/C [5]: 90.9%
- viability, T/C [6]: 97.2%
- viability, T/C [7]: 103%
- viability, T/C [8]: 94.7%
- viability, T/C [9]: 98.4%
- viability, T/C [10]: 89.8%
- viability, T/C [11]: 98.6%
- viability, T/C [12]: 93.5%
- viability, T/C [13]: 103%
- viability, T/C [14]: 99.2%
- viability, T/C [15]: 101%
- viability, T/C [16]: 106%
- viability, T/C [17]: 104%
- viability, T/C [18]: 105%
- viability, T/C [19]: 95.4%
- viability, T/C [20]: 92.5%
- viability, T/C [21]: 93.5%
- viability, T/C [22]: 81.1%
- viability, T/C [23]: 108%
- viability, T/C [24]: 88.3%
- viability, T/C [25]: 89.9%
- viability, T/C [26]: 106%
- viability, T/C [27]: 87.9%
- viability, T/C [28]: 108%
- viability, T/C [29]: 86.6%
- viability, T/C [30]: 72.6%
- viability, T/C [31]: 63%
- viability, T/C [32]: 57.7%
- viability, T/C [33]: 63.8%
- viability, T/C [34]: 57%
- viability, T/C [35]: 52%
- viability, T/C [36]: 38.4%

Compound: O=C(NO)c1cnc(N2CCN(S(=O)(=O)c3ccc4ccccc4c3)CC2)nc1 + CN(C)c1ccc(Nc2c3ccc(NC(=O)CCN4CCCC4)cc3nc3cc(NC(=O)CCN4CCCC4)ccc23)cc1
- IC50 (second compound 0.0316 µM): 0.112 µM
- IC50 (second compound 0.1 µM): 0.0973 µM
- IC50 (second compound 0.316 µM): 0.126 µM
- IC50 (second compound 1 µM): 0.112 µM
- IC50 (second compound 3.16 µM): 0.0769 µM
- IC50 (second compound 10 µM): < 0.0316 µM
- viability, T/C [1]: 77.3%
- viability, T/C [2]: 54.4%
- viability, T/C [3]: 7.95%
- viability, T/C [4]: 0.72%
- viability, T/C [5]: 0.35%
- viability, T/C [6]: 0.33%
- viability, T/C [7]: 76.3%
- viability, T/C [8]: 49.4%
- viability, T/C [9]: 9.87%
- viability, T/C [10]: 0.62%
- viability, T/C [11]: 0.38%
- viability, T/C [12]: 0.34%
- viability, T/C [13]: 76.5%
- viability, T/C [14]: 60.9%
- viability, T/C [15]: 7.1%
- viability, T/C [16]: 0.61%
- viability, T/C [17]: 0.29%
- viability, T/C [18]: 0.34%
- viability, T/C [19]: 74.4%
- viability, T/C [20]: 54.7%
- viability, T/C [21]: 7.49%
- viability, T/C [22]: 0.53%
- viability, T/C [23]: 0.35%
- viability, T/C [24]: 1.39%
- viability, T/C [25]: 65.4%
- viability, T/C [26]: 45.4%
- viability, T/C [27]: 7.07%
- viability, T/C [28]: 0.61%
- viability, T/C [29]: 0.37%
- viability, T/C [30]: 0.78%
- viability, T/C [31]: 48.2%
- viability, T/C [32]: 35.6%
- viability, T/C [33]: 3.88%
- viability, T/C [34]: 0.37%
- viability, T/C [35]: 0.37%
- viability, T/C [36]: 0.34%

Compound: COc1ccc([C@@H](O)c2cc(-c3ncnc4cc(N5CCOCC5)ccc34)c(F)cc2Cl)nn1 + Cc1[nH]c2ccc(F)cc2c1-c1nc2c3cccnc3c3ncccc3c2[nH]1
- IC50 (second compound 0.0316 µM): > 10 µM
- IC50 (second compound 0.1 µM): > 10 µM
- IC50 (second compound 0.316 µM): > 10 µM
- IC50 (second compound 1 µM): > 10 µM
- IC50 (second compound 3.16 µM): > 10 µM
- IC50 (second compound 10 µM): 6.14 µM
- viability, T/C [1]: 96.5%
- viability, T/C [2]: 89%
- viability, T/C [3]: 94.6%
- viability, T/C [4]: 77.9%
- viability, T/C [5]: 69.3%
- viability, T/C [6]: 52%
- viability, T/C [7]: 98.6%
- viability, T/C [8]: 89.1%
- viability, T/C [9]: 97.7%
- viability, T/C [10]: 77.5%
- viability, T/C [11]: 64.7%
- viability, T/C [12]: 55.4%
- viability, T/C [13]: 94.2%
- viability, T/C [14]: 105%
- viability, T/C [15]: 95.9%
- viability, T/C [16]: 89.6%
- viability, T/C [17]: 72.2%
- viability, T/C [18]: 56.5%
- viability, T/C [19]: 94.7%
- viability, T/C [20]: 93.8%
- viability, T/C [21]: 95.8%
- viability, T/C [22]: 81.2%
- viability, T/C [23]: 69.1%
- viability, T/C [24]: 50.3%
- viability, T/C [25]: 89.1%
- viability, T/C [26]: 90.9%
- viability, T/C [27]: 83%
- viability, T/C [28]: 71.3%
- viability, T/C [29]: 64.5%
- viability, T/C [30]: 50.3%
- viability, T/C [31]: 92.2%
- viability, T/C [32]: 87.7%
- viability, T/C [33]: 82%
- viability, T/C [34]: 68.8%
- viability, T/C [35]: 61.7%
- viability, T/C [36]: 42.4%

Reference: PubChem BioAssay AID2060500 (Molecular Pharmacology Branch, DTP, NCI, 2025)
